In publication PMC8185074, “Anchor extension: a structure-guided approach to design cyclic peptides targeting enzyme active sites” (Nature Communications, 2021):
Read-outs that look alike come from different tables or passages of the source. Peptide text beside a SMILES is read from it.

How the values were obtained:
[1] = target: T1, HDAC2 (Homo sapiens, UniProt Q92769); assay: Initial HDAC2 IC50 estimate (BPS Biosciences HDAC fluorogenic assay kit); assay type: biochemical; conditions: Supplementary Dataset 2; read-out: HDAC2 activity (initial activity)
T1 construct: purchased Reaction Biology Corporation (assay run by the CRO)
T1 sequence (Q92769 whole entry): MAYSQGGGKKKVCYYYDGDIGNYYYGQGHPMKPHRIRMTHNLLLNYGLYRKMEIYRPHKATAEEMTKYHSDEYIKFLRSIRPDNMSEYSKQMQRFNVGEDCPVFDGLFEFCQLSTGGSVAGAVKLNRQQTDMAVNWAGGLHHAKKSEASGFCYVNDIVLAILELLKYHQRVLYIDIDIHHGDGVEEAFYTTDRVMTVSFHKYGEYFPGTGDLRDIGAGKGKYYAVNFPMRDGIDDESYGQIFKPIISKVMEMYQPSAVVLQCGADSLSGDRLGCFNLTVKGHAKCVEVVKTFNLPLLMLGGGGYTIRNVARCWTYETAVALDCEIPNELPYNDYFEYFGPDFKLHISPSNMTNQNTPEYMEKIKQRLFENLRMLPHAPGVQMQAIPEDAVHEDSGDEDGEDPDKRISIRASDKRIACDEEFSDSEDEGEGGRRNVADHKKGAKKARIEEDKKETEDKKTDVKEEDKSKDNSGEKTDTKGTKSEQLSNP
Description: Initial IC50 values were estimated using HDAC fluorogenic assay kits from BPS Biosciences (HDAC2, HDAC4, and HDAC6) following the protocol described in the kit. All the measures were performed in duplicates or triplicates. These measurements were done either on full range of concentrations (1:10 dilution from 1 µM to 100 pM) or on two concentrations only (20 nM and 200 nM) as an estimate of the range. […] Source Data are provided as a Source Data file.

[2] = target: T2, HDAC8 (Homo sapiens, UniProt Q9BY41); assay: HDAC8 inhibition, full IC50 measurement (Reaction Biology; fluorogenic p53 peptide RHKK(Ac)AMC); assay type: biochemical; conditions: Supp. Table 1
T2 construct: purchased Reaction Biology Corporation (assay run by the CRO)
T2 sequence (Q9BY41 1-377): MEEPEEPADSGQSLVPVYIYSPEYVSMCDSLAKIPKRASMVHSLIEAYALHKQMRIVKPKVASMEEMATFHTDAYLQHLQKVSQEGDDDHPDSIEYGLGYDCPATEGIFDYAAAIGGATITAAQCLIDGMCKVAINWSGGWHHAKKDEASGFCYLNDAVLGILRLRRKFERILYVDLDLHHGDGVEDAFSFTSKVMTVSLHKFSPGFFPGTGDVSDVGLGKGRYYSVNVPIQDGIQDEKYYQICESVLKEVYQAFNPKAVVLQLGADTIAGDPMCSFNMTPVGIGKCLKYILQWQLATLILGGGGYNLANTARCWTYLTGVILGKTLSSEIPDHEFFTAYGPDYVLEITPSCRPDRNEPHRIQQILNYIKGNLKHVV
Description: (§1) The assay was performed using 50 μM fluorogenic peptide from p53 residues 379-382 [RHKK(Ac)AMC] in a base reaction buffer of 50 mM Tris-HCl at pH 8.0, 137 mM NaCl, 2.7 mM KCl, 1 mM MgCl2, and freshly added 1 mg/ml BSA and 1% DMSO. Peptides were first dissolved in DMSO and then added to the reaction mixture with the enzyme using acoustic technique, enough to reach the desired concentration for that assay point. Peptide concentrations were calculated based on mass of lyophilized peptide and its molecular weight. The substrate was then added and incubated for 1 hour at 30 °C in a sealed container. After the incubation, developer was added to stop the reaction and develop color. Kinetic measurements were then performed for 20 min with Envision with 5 min intervals (Ex/Em = 360/460 nm). The endpoint after plateau was taken for IC50 measurement.
(§2) In cases where duplicate measures are used, average data is reported in the main text or Supplementary Tables.

[3] = target: T3, HDAC3 (Homo sapiens, UniProt O15379); assay: HDAC3 inhibition, full IC50 measurement (Reaction Biology; fluorogenic p53 peptide RHKK(Ac)AMC); assay type: biochemical; conditions: Supp. Table 1
T3 construct: purchased Reaction Biology Corporation (assay run by the CRO)
T3 sequence (O15379 whole entry): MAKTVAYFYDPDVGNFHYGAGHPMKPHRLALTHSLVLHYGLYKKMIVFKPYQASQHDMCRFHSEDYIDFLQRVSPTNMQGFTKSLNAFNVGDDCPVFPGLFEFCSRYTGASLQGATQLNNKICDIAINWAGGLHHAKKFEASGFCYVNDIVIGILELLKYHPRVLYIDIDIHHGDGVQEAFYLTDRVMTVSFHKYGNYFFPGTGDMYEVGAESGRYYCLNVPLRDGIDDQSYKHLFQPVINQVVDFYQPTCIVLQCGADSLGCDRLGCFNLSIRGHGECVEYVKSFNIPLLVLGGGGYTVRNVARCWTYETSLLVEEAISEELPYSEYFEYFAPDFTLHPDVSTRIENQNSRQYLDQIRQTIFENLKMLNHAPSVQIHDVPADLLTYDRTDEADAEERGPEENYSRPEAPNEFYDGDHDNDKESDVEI
T3 sequence (Q9Y618 395-489 partner limits assumed): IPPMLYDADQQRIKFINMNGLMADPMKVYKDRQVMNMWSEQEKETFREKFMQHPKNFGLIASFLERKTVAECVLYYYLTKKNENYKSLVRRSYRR
Description: as §1, §2

[4] = target: T4, HDAC1 (Homo sapiens, UniProt Q13547); assay: HDAC1 inhibition, full IC50 measurement (Reaction Biology; fluorogenic p53 peptide RHKK(Ac)AMC); assay type: biochemical; conditions: Supp. Table 1
T4 construct: purchased Reaction Biology Corporation (assay run by the CRO)
T4 sequence (Q13547 whole entry): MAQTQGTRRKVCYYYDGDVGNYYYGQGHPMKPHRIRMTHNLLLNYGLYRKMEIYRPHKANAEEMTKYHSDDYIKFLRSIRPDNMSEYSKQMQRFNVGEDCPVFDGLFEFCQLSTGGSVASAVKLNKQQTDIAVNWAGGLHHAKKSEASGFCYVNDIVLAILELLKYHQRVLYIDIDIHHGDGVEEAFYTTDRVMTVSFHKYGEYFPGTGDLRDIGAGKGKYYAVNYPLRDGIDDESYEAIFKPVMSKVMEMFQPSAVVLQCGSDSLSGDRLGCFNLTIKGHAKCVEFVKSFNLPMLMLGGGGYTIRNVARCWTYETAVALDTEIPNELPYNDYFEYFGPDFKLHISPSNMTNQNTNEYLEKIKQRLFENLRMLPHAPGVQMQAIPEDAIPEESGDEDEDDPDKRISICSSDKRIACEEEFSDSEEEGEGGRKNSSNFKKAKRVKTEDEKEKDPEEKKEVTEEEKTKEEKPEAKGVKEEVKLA
Description: as §1, §2

[5] = target: T1, HDAC2; assay: HDAC2 inhibition, full IC50 measurement (Reaction Biology; fluorogenic p53 peptide RHKK(Ac)AMC); assay type: biochemical; conditions: figure legends, Supp. Table 1; read-out: HDAC2 IC50
In short: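 Test peptides were dispensed acoustically with enzyme in 50 mM Tris-HCl pH 8.0, 137 mM NaCl, 2.7 mM KCl, 1 mM MgCl2, 1 mg/ml BSA and 1% DMSO. After adding 50 μM RHKK(Ac)AMC, reactions ran 1 h at 30 °C, then developer was added.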

[6] = target: T5, HDAC6 (Homo sapiens, UniProt Q9UBN7); assay: HDAC6 inhibition, full IC50 measurement (Reaction Biology; fluorogenic p53 peptide RHKK(Ac)AMC); assay type: biochemical; conditions: figure legends, Supp. Tables 1 and 8; read-out: HDAC6 IC50
T5 construct: purchased Reaction Biology Corporation (assay run by the CRO)
T5 sequence (Q9UBN7 1-1215): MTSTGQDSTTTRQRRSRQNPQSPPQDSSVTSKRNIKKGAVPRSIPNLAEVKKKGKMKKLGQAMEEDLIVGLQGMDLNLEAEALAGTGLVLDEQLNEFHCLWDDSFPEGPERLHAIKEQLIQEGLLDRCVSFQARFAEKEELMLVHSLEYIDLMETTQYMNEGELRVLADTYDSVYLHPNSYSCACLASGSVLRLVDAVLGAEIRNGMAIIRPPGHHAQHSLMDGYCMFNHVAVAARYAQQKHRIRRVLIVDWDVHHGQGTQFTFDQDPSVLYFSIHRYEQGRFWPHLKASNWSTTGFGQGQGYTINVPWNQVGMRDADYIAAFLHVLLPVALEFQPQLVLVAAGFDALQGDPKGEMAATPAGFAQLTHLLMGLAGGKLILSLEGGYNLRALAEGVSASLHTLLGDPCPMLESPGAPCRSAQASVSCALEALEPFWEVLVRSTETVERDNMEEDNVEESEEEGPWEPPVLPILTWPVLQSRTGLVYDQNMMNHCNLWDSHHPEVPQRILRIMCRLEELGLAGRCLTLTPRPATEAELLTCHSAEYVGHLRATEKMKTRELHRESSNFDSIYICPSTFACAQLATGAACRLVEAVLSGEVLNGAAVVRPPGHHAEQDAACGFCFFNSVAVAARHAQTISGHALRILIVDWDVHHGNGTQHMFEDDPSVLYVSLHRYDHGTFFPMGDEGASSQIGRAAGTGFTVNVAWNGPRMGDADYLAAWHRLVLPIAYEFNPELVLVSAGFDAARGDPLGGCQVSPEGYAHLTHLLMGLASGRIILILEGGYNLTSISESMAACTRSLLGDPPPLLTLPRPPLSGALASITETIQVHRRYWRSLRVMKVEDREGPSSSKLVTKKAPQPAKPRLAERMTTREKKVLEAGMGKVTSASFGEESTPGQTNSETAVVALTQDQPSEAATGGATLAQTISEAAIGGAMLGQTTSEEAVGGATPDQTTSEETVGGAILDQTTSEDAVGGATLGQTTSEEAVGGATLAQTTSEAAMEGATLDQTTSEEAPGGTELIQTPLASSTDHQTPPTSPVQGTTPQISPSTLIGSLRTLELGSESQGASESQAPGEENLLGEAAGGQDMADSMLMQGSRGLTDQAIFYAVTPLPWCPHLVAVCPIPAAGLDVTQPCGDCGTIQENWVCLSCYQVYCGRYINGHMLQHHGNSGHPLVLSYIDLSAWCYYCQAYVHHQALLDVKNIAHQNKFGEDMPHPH
Description: as §1, §2

[7] = target: T4, HDAC1; conditions: Supp. Table 1; cited from earlier work
[8] = tested on: HDAC6; conditions: Supp. Table 1; cited from earlier work
[9] = target: T6, HDAC4 (Homo sapiens, UniProt P56524); conditions: Supp. Table 1; cited from earlier work
T6 construct: purchased BPS Biosciences
T6 sequence (P56524 whole entry): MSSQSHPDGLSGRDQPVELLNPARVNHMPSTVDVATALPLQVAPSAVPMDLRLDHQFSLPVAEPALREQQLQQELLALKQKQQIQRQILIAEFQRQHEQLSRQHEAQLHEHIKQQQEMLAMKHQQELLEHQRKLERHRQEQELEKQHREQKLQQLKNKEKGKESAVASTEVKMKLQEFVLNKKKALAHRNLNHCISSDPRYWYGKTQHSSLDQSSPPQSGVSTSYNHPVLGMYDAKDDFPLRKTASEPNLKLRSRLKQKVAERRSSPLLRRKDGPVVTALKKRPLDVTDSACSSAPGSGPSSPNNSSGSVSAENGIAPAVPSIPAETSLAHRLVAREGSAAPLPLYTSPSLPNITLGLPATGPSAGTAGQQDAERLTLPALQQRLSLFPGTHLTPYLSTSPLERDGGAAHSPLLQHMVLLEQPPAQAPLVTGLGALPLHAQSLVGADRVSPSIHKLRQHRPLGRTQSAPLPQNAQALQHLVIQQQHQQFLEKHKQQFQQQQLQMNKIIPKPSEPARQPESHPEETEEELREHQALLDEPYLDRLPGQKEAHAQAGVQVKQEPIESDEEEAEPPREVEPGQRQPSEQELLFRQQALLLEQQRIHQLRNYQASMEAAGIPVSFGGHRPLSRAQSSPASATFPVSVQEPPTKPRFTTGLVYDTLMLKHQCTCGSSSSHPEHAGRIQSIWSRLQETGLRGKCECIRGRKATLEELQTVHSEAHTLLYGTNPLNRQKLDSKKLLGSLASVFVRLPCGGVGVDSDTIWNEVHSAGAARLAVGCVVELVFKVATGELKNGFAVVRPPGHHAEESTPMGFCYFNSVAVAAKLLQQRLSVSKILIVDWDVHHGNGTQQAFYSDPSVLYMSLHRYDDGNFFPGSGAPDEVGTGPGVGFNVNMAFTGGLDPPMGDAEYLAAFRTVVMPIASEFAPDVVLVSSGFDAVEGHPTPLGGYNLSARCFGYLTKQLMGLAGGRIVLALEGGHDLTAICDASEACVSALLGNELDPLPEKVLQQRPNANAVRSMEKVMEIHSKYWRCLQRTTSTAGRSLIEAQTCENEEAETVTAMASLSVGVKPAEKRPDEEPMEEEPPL

| Compound | IC50 [1] | IC50 [2] | IC50 [3] | IC50 [4] | IC50 [5] | IC50 [6] | IC50 [7] | IC50 [8] | IC50 [9] |
| --- | --- | --- | --- | --- | --- | --- | --- | --- | --- |
| N=C(N)NCCC[C@@H]1NC(=O)[C@@H](CCCNC(=N)N)NC(=O)[C@H]2CCCN2C(=O)[C@@H](Cc2c[nH]cn2)NC(=O)[C@H](Cc2ccc(O)cc2)NC(=O)[C@H](CCCCCS)NC(=O)[C@H](CCc2ccccc2)NC(=O)[C@@H](CCC(N)=O)NC(=O)[C@H](CC(=O)O)NC1=O [des3.3.0, SHA-Tyr-dHis-dPro-dArg- Arg-Asp-dGln-C27] (HELM PEPTIDE1{D.[dQ].[O=C([C@H](CCc1ccccc1)N[*:1])[*:2]].[O=C([C@H](CCCCCS)N[*:1])[*:2]].Y.[dH].[dP].[dR].R}$PEPTIDE1,PEPTIDE1,1:R1-9:R2$$$V2.0) | 10 to 100 nM | 244 nM | 6.4 nM | 4.2 nM | 9.1 nM | 11.6 nM |  |  |  |
| Cyl-2 |  |  |  |  |  |  | 0.7 ± 0.45 nM | 40000 nM |  |
| Trapoxin B |  |  |  |  |  |  |  | 360 ± 160 nM | 0.3 ± 0.03 nM |
